The source of these data is patent US20110136762A1, “FUNGICIDAL PYRIDAZINES” (E.I. Du Pont de Nemours and Company, priority 2008, published 2011).

Holding throughout (type): in vivo
One assay concerns Erysiphe graminis. Put plainly: Test A: wheat powdery mildew, preventive spray on wheat seedlings, visual disease rating. The note with it: 200 ppm, 100 = 100% disease control, 0 = no disease control relative to controls; for pest or weed control at 200 ppm: Blumeria graminis, 192 h. The source says:
General protocol for preparing test suspensions for Tests A-F: […] The resulting test suspensions were then used in Tests A-F. The test suspensions were sprayed to the point of run-off on the test plants. All results are for 200 ppm (equivalent to a rate of 500 g/ha) except where followed by “*” which indicates 40 ppm. The test suspension was sprayed to the point of run-off on wheat seedlings. The following day the seedlings were inoculated with a spore dust of Erysiphe graminis, (the causal agent of wheat powdery mildew) and incubated in a growth chamber at 20° C. for 8 days, after which time visual disease ratings were made. […] A dash (-) indicates no test results. All results are for 200 ppm except where followed by “*”, which indicates 40 ppm.

Assay [1] deals with Puccinia recondita f. sp. tritici. Nature of the assay: Test B: wheat leaf rust, preventive spray on wheat seedlings, visual disease rating. Particulars: 200 ppm, 100 = 100% disease control, 0 = no disease control relative to controls; for pest or weed control at 200 ppm: 192 h. An excerpt:
General protocol for preparing test suspensions for Tests A-F: […] The resulting test suspensions were then used in Tests A-F. The test suspensions were sprayed to the point of run-off on the test plants. All results are for 200 ppm (equivalent to a rate of 500 g/ha) except where followed by “*” which indicates 40 ppm. The test suspension was sprayed to the point of run-off on wheat seedlings. The following day the seedlings were inoculated with a spore suspension of Puccinia recondita f. sp. tritici (the causal agent of wheat leaf rust) and incubated in a saturated atmosphere at 20° C. for 24 h, and then moved to a growth chamber at 20° C. for 7 days, after which time visual disease ratings were made. […] A dash (-) indicates no test results. All results are for 200 ppm except where followed by “*”, which indicates 40 ppm.

A further assay has as its system Septoria tritici. Nature of the assay: Test C: wheat leaf blotch, preventive spray on wheat seedlings, visual disease rating. The note with it: 200 ppm, 100 = 100% disease control, 0 = no disease control relative to controls; for pest or weed control at 200 ppm: Zymoseptoria tritici, 504 h. The source says: General protocol for preparing test suspensions for Tests A-F: […] The resulting test suspensions were then used in Tests A-F. The test suspensions were sprayed to the point of run-off on the test plants. All results are for 200 ppm (equivalent to a rate of 500 g/ha) except where followed by “*” which indicates 40 ppm. The test suspension was sprayed to the point of run-off on wheat seedlings. The following day the seedlings were inoculated with a spore suspension of Septoria tritici (the causal agent of wheat leaf blotch) and incubated in saturated atmosphere at 20° C. for 48 h, and moved to a growth chamber at 20° C. for 19 additional days, after which time visual disease ratings were made. […] A dash (-) indicates no test results. All results are for 200 ppm except where followed by “*”, which indicates 40 ppm.

A further assay relates to Septoria nodorum. Put plainly: Test D: wheat glume blotch, preventive spray on wheat seedlings, visual disease rating. Particulars: 200 ppm, 100 = 100% disease control, 0 = no disease control relative to controls; for pest or weed control at 200 ppm: Parastagonospora nodorum. The source says:
General protocol for preparing test suspensions for Tests A-F: […] The resulting test suspensions were then used in Tests A-F. The test suspensions were sprayed to the point of run-off on the test plants. All results are for 200 ppm (equivalent to a rate of 500 g/ha) except where followed by “*” which indicates 40 ppm. The test suspension was sprayed to the point of run-off on wheat seedlings. The following day the seedlings were inoculated with a spore suspension of Septoria nodorum (the causal agent of wheat glume blotch) and incubated in a saturated atmosphere at 20° C. for 48 h, and then moved to a growth chamber at 20° C. for 7 days, after which time visual disease ratings were made. […] A dash (-) indicates no test results. All results are for 200 ppm except where followed by “*”, which indicates 40 ppm.

The next assay concerns Alternaria solani. Nature of the assay: Test E: tomato early blight, preventive spray on tomato seedlings, visual disease rating. Particulars: 200 ppm, 100 = 100% disease control, 0 = no disease control relative to controls; for pest or weed control at 200 ppm: Alternaria solani. An excerpt:
General protocol for preparing test suspensions for Tests A-F: […] The resulting test suspensions were then used in Tests A-F. The test suspensions were sprayed to the point of run-off on the test plants. All results are for 200 ppm (equivalent to a rate of 500 g/ha) except where followed by “*” which indicates 40 ppm. The test suspension was sprayed to the point of run-off on tomato seedlings. […] A dash (-) indicates no test results. All results are for 200 ppm except where followed by “*”, which indicates 40 ppm.

Another assay relates to Botrytis cinerea. Nature of the assay: Test F: tomato Botrytis, preventive spray on tomato seedlings, visual disease rating. The note with it: 200 ppm, 100 = 100% disease control, 0 = no disease control relative to controls; for pest or weed control at 200 ppm: Botrytis cinerea. The source says: General protocol for preparing test suspensions for Tests A-F: […] The resulting test suspensions were then used in Tests A-F. The test suspensions were sprayed to the point of run-off on the test plants. All results are for 200 ppm (equivalent to a rate of 500 g/ha) except where followed by “*” which indicates 40 ppm. The test suspension was sprayed to the point of run-off on tomato seedlings. The following day the seedlings were inoculated with a spore suspension of Botrytis cinerea (the causal agent of tomato Botrytis) and incubated in saturated atmosphere at 20° C. for 48 h, and then moved to a growth chamber at 24° C. for 3 days, after which time visual disease ratings were made. […] A dash (-) indicates no test results. All results are for 200 ppm except where followed by “*”, which indicates 40 ppm.

In the case of `COc1cc(OC)cc(-c2c(-c3ccccc3)nnc(C)c2-c2ccc(F)cc2)c1` [Compound 1, 4-(3,5-dimethoxyphenyl)-5-(4-fluorophenyl)-6-methyl-3-phenylpyridazine], the pest or weed control at 200 ppm in the assay on Erysiphe graminis came out at 85%; in assay [1], 99%; with Septoria tritici it was 100%; in the assay with Septoria nodorum, 0%; in the assay with Alternaria solani, 72%; with Botrytis cinerea, 98%.
For `COc1cc(OC)cc(-c2c(-c3ccccc3F)nnc(C)c2-c2ccc(F)cc2)c1` [Compound 2, 4-(3,5-dimethoxyphenyl)-3-(2-fluorophenyl)-5-(4-fluorophenyl)-6-methylpyridazine], the pest or weed control at 200 ppm in the assay on Erysiphe graminis came to 97%; in assay [1], 99%; in the assay with Septoria tritici, 100%; with Septoria nodorum, 0%; with Alternaria solani, 99%; in the assay on Botrytis cinerea it was 99%.
Regarding `COc1cc(OC)cc(-c2c(-c3ccccc3)nnc(C)c2-c2ccccc2)c1` [Compound 3], in the assay with Erysiphe graminis, the “Test A rating (disease control, wheat powdery mildew)” value (shortened to “Test A rating”) came to 52%. The “Test B rating (disease control, wheat leaf rust)” value (“Test B rating” below) in assay [1] is 86%. The “Test C rating (disease control, wheat leaf blotch)” value (shortened to “Test C rating”) in the assay with Septoria tritici is reported as 87%. Also, the “Test D rating (disease control, wheat glume blotch)” value (shortened to “Test D rating”) with Septoria nodorum is on record as 0%. The “Test E rating (disease control, tomato early blight)” value (from here on “Test E rating”) in the assay with Alternaria solani was 0%. The “Test F rating (disease control, tomato Botrytis)” value (“Test F rating” below) in the assay on Botrytis cinerea came to 52%.
Regarding `COc1cc(OC)cc(-c2c(-c3ccccc3F)nnc(C)c2-c2ccccc2)c1` [Compound 4], the “Test A rating” value with Erysiphe graminis worked out at 82%. Further, in assay [1], the “Test B rating” value is 96%. In addition, the “Test C rating” value in the assay on Septoria tritici came to 84%. The “Test D rating” value with Septoria nodorum was determined as 0%. Moreover, the “Test E rating” value in the assay with Alternaria solani was found to be 28%. In the assay with Botrytis cinerea, the “Test F rating” value came out at 94%.
Take `COc1cc(OC)cc(-c2c(-c3ccc(F)cc3F)nnc(C)c2-c2ccccc2)c1` [Compound 5]: the “Test A rating” value in the assay with Erysiphe graminis came out at 91%. Further, in assay [1], the “Test B rating” value turned out to be 86%. For the same compound, the “Test C rating” value in the assay with Septoria tritici stood at 94%. Besides, in the assay on Septoria nodorum, the “Test D rating” value was 0%. Also, the “Test E rating” value in the assay on Alternaria solani came to 0%. Moreover, in the assay with Botrytis cinerea, the “Test F rating” value was found to be 82%.
As for `COc1cc(OC)cc(-c2c(-c3ccccc3)nnc(C)c2-c2ccc(Cl)cc2)c1` [Compound 6], the “Test A rating” value in the assay with Erysiphe graminis came to 79%. In assay [1], the “Test B rating” value was determined as 97%. The “Test C rating” value in the assay with Septoria tritici worked out at 97%. The “Test D rating” value with Septoria nodorum is recorded as 0%. Besides, the “Test E rating” value with Alternaria solani turned out to be 36%. For the same compound, the “Test F rating” value in the assay on Botrytis cinerea was determined as 67%.
As for `COc1ccc(-c2c(C)nnc(-c3ccccc3)c2-c2cc(OC)cc(OC)c2)cc1` [Compound 7, 4-(3,5-dimethoxyphenyl)-5-(4-methoxyphenyl)-6-methyl-3-phenylpyridazine], the pest or weed control at 200 ppm with Erysiphe graminis was determined as 95%; in assay [1], 100%; in the assay on Septoria tritici it was 100%; in the assay on Septoria nodorum, 90%; with Alternaria solani, 96%; with Botrytis cinerea it was 97%.
As to `COc1ccc(-c2c(C)nnc(-c3ccccc3F)c2-c2cc(OC)cc(OC)c2)cc1` [Compound 8, 4-(3,5-dimethoxyphenyl)-3-(2-fluorophenyl)-5-(4-methoxyphenyl)-6-methylpyridazine], the pest or weed control at 200 ppm amounted to 97% in the assay with Erysiphe graminis; 100% in assay [1]; 100% in the assay with Septoria tritici; 95% in the assay on Septoria nodorum; 99% in the assay on Alternaria solani; 98% with Botrytis cinerea.
With `COc1ccc(-c2c(C)nnc(-c3ccc(F)cc3F)c2-c2cc(OC)cc(OC)c2)cc1` [Compound 9, 3-(2,4-difluorophenyl)-4-(3,5-dimethoxyphenyl)-5-(4-methoxyphenyl)-6-methylpyridazine], the pest or weed control at 200 ppm with Erysiphe graminis was 84%; in assay [1], 91%; with Septoria tritici, 100%; in the assay on Septoria nodorum, 60%; in the assay with Alternaria solani, 81%; in the assay on Botrytis cinerea it was 98%.
Take `COc1cc(OC)cc(-c2c(-c3cccc(F)c3F)nnc(C)c2-c2ccccc2)c1` [Compound 10]: the “Test A rating” value with Erysiphe graminis was 97%. Further, in assay [1], the “Test B rating” value is listed as 99%. In addition, the “Test C rating” value with Septoria tritici came out at 99%. The “Test D rating” value with Septoria nodorum is listed as 0%. For the same compound, in the assay on Alternaria solani, the “Test E rating” value is listed as 88%. For the same compound, the “Test F rating” value with Botrytis cinerea turned out to be 95%.
As to `COc1cc(OC)cc(-c2c(-c3ccc(F)cc3)nnc(C)c2-c2ccccc2)c1` [Compound 11], the “Test A rating” value with Erysiphe graminis is 93%. The “Test B rating” value in assay [1] is given as 68%. The “Test C rating” value in the assay with Septoria tritici came to 70%. Besides, the “Test D rating” value in the assay on Septoria nodorum was determined as 0%. Also, the “Test E rating” value in the assay on Alternaria solani is listed as 0%. In the assay on Botrytis cinerea, the “Test F rating” value is reported as 0%.
With `COc1cc(OC)cc(-c2c(-c3ccccc3)n[n+]([O-])c(C)c2-c2ccc(F)cc2)c1` [Compound 12, 4-(3,5-dimethoxyphenyl)-5-(4-fluorophenyl)-6-methyl-3-phenylpyridazine 1-oxide], the pest or weed control at 200 ppm was 62% with Erysiphe graminis; 100% in assay [1]; 99% in the assay on Septoria tritici; 0% with Septoria nodorum; 94% in the assay with Alternaria solani; 100% in the assay with Botrytis cinerea.
In the case of `COc1cc(OC)cc(-c2c(-c3ccccn3)nnc(C)c2-c2ccccc2)c1` [Compound 13, 4-(3,5-dimethoxyphenyl)-6-methyl-5-phenyl-3-(2-pyridinyl)pyridazine], the pest or weed control at 200 ppm with Erysiphe graminis is 0%; in assay [1], 41%; in the assay on Septoria tritici, 0%; in the assay with Septoria nodorum, 0%; in the assay on Alternaria solani, 0%; with Botrytis cinerea, 0%.

One may read the pest or weed control as the degree to which the test organism was suppressed or injured, in per cent. Low values mean a weak effect, high ones a strong effect.
